The record followed here is patent US8022103B2, “Ester prodrugs of prostratin and related phorbol compounds” (Salvia Sciences, Inc., priority 2005, dated 2011).

In brackets after ≈: the same amount, converted by molar mass. Like-named read-outs stand apart in the source and are kept apart here.

The subject of assay [1] is HIV-1 isolates Ba-L and IIIB and the SIV isolate mac251. The assay is described as follows: PBMC-based assay, summary over all three isolates. In kind it is cell-based. The settings on record: read-out: IC50 values against all three isolates. As to the method: Compounds SA-101A and SA-101B were tested for antiviral activity against HIV-1 in peripheral blood mononuclear cells (PBMC) acutely infected with the HIV-1 isolates. PBMCs were derived from normal HIV-1 negative donors, and cultured under conditions which promote cell survival and HIV replication. Fresh human blood was obtained commercially from Biological Specialty Corporation (Colmar, Pa.). The low passage clinical isolates HIV-1Ba-L, HIVIIIB, and SIVmac251 were from the NIAID AIDS Research and Reference Reagent Program. Immediately before use, pre-titered aliquot of the viruses were removed from storage in a freezer (−80° C.) and thawed rapidly to room temperature in a biological safety cabinet. Phytohemagglutinin (PHA-P) was obtained from Sigma (St. Louis, Mo.) and recombinant IL-2 was obtained from R&D Systems Inc. (Minneapolis, Minn.). […]
(§1) PMBC assay. […] Pooling (mixing) of mononuclear cells from more than one donor is used to minimize the variability observed between individual donors, which results from quantitative and qualitative differences in HIV infection and overall response to the PHA and IL-2 of primary lymphocyte populations. […]

The subject of another assay is HIV-1IIIB. The experiment in a line: PBMC antiviral assay, HIV-1IIIB. To be noted: human PBMCs. The format is cell-based. As to the method:
Compounds SA-101A and SA-101B were tested for antiviral activity against HIV-1 in peripheral blood mononuclear cells (PBMC) acutely infected with the HIV-1 isolates. PBMCs were derived from normal HIV-1 negative donors, and cultured under conditions which promote cell survival and HIV replication. Fresh human blood was obtained commercially from Biological Specialty Corporation (Colmar, Pa.). The low passage clinical isolates HIV-1Ba-L, HIVIIIB, and SIVmac251 were from the NIAID AIDS Research and Reference Reagent Program. Immediately before use, pre-titered aliquot of the viruses were removed from storage in a freezer (−80° C.) and thawed rapidly to room temperature in a biological safety cabinet. Phytohemagglutinin (PHA-P) was obtained from Sigma (St. Louis, Mo.) and recombinant IL-2 was obtained from R&D Systems Inc. (Minneapolis, Minn.). Antiviral activity was tested from a high-test concentration of 100 μM or 100 μg/ml with nine ½-log serial dilutions of the compound to derive applicable IC50 (concentration inhibition virus replication by 50%), IC90 (concentration inhibition virus replication by 90%), TC50 (concentration decreasing cell viability by 50%) and TI (therapeutic index: TC50/IC50) values.
Preparation of PMBC. Fresh Human PBMCs, Seronegative for HIV and HBV, were isolated from screened donors (Interstate Blood Bank, Inc. Memphis, Tenn.). Cells were pelleted/washed 2-3 times by low speed centrifugation and resuspensded in PBS to remove contaminating platelets. The leukophoresed blood was then diluted 1:1 with Dulbecco's Phosphate Buffered Saline (DPBS) and layered over 14 mL of Lymphocyte Separation Medium (LSM; Cellgro® by Mediatech, Inc.; density 1.078+/−0.002 g/ml; Cat. # 85-072-CL) in a 50 mL centrifuge tube and then centrifuged for 30 minutes at 600×g. […]
as §1

The IC50 is the midpoint of a concentration-inhibition curve. A word on the IC90: it is the concentration at which the effect reaches the 90% level. For the molecule `CC(=O)O[C@@]12C[C@@H](C)[C@@]3(O)[C@@H](C=C(CO)C[C@]4(O)C(=O)C(C)=C[C@@H]34)[C@@H]1C2(C)C` [SA-101A, 12-deoxyphorbol 13-acetate], the 50% inhibitory concentration (IC50) is 0.05 to 0.39 µg/mL (≈ 0.128 to 0.999 µM) in assay [1] and 0.09 µg/mL (≈ 0.23 µM) in the assay on HIV-1IIIB (Human immunodeficiency virus 1, PBMC). In addition, the concentration for an effect of 90% (IC90) in the assay on HIV-1IIIB (Human immunodeficiency virus 1, PBMC, read-out: IC90) came out at 0.5 µg/mL (≈ 1.28 µM).

With `CC(=O)OC12CC(C)C3(O)C(C=C(COC(=O)CCC(=O)O)CC4(O)C(=O)C(C)=CC43)C1C2(C)C` (stereo not shown) [SA-101B, Prostratin Succinate], the 90% effect concentration (IC90) with HIV-1IIIB (40% Human AB serum) was over 1.00 µg/mL.
